Experimental findings from patent US3962316A, “Carbamate” (priority 1972, dated 1976) are described below.

Holding throughout (format): in vivo
Assay [1] deals with caterpillars of the cabbage moth (Plutella maculipennis). Description: Contact action and effect of ingested food on caterpillars of the cabbage moth (dipped cabbage leaves). Conditions: for Mortality (in words): 0.1% by weight of ingredient in aqueous emulsion. An excerpt:
Contact action and effect of ingested food on caterpillars of the cabbage moth (Plutella maculipennis). Young cabbage leaves are dipped for 3 seconds into aqueous emulsions of the active ingredients. After they have dried they are put into Petri dishes and caterpillars of the cabbage moth are placed on them.

Assay [2] relates to houseflies (Musca domestica). The conditions noted are these: after 4 hours. An excerpt: 1 mm^3 of an acetonic solution of the active ingredients is applied to the ventral abdomen of houseflies (Musca domestica) under slight CO2 narcosis.
Assay [3] deals with oriental cockroaches (Blatta orientalis). The assay is described as follows: Contact with treated inner surfaces of 1 liter glass beakers, adult oriental cockroaches. Here is the method:
Adult oriental cockroaches (Blatta orientalis) are placed in 1 liter glass beakers whose inner surfaces have been treated with acetonic solutions of the active ingredients. The action is determined after 48 hours.

Usually mortality stands for the percentage killed. Take `CNC(=O)Oc1ccccc1OC(CCl)OC` (stereo not drawn) [Active ingredient 1, o-(α-methoxy-β-chloro)-ethoxyphenyl-N-methylcarbamate]: the mortality at 0.05 % in assay [1] (Plutella) worked out at 100%. Also, the LD50 in assay [2] is 0.41 γ/fly. In addition, the mortality at 0.05 mg in assay [3] (48 h) worked out at 100%.
Turning to `CNC(=O)Oc1ccccc1OC(C)C` [III], in assay [1], the “Mortality (in words)” value is listed as “ineffective”. Further, the LD50 in assay [2] was 1.5 γ/fly.
With `CNC(=O)Oc1cccc(C)c1` [II], in assay [1], the “Mortality (in words)” value is reported as “ineffective”. In assay [2] (10.0 γ/fly), the “Effect on flies (LD50 column, in words)” value is recorded as “ineffective”. The compound also displayed a mortality at 0.5 mg in assay [3] (0.5 mg/breaker, after 48 hours) of 100%.
Compound `CNC(=O)Oc1cccc2ccccc12` [I] gave a mortality at 0.1 % in assay [1] (Plutella) of 100%. In assay [3] (48 h), this compound yielded a mortality at 0.2 mg of 100%.
For the compound `CCOC(CCl)Oc1ccccc1OC(=O)NC` (stereo not drawn) [compound 6], the mortality at 0.02 % in assay [1] (Plutella) was 100%.
For “o-(α-2-chloroethoxy)-ethoxyphenyl-N-methylcarbamate [Example 2]”, in assay [2], the LD50 is listed as 0.3 γ/fly.
